# Measured values reported in ChEMBL document CHEMBL3045049, “Synthesis and antiviral activity of new 3-methyl-1,5-diphenyl-1H-pyrazole derivatives” (Med Chem Res, 2012).
# Active and inactive are the calls of the source. The rule behind the calls is not given here.
# Columns and labels:
# Human alphaherpesvirus 1 = assay: Antiviral activity against Human herpesvirus 1 infected African green monkey Vero cells after 66 hr by viral plaque reduction assay; format: functional; parameters: concentration or dose not given beside the values
# Vero = assay: Cytotoxicity against Chlorocebus aethiops (African green monkey) Vero cells after 24 hr; format: cell-based; conditions: chlorocebus sabaeus
SMILES,Activity (Human alphaherpesvirus 1),Activity (Vero)
Cc1ccc(C2=NNC(c3c(C)nn(-c4ccccc4)c3-c3ccccc3)C2)cc1 (centres undefined),22%,
Nc1nc2c(ncn2COCCO)c(=O)[nH]1 [ACYCLOVIR],100%,
Cc1nn(-c2ccccc2)c(-c2ccccc2)c1C1CC(c2ccc(N)cc2)=NN1c1ccccc1 (centres undefined),inactive,Toxic
COc1ccc(OC)c(C(=O)/C=C/c2c(C)nn(-c3ccccc3)c2-c2ccccc2)c1,17%,
Cc1nn(-c2ccccc2)c(-c2ccccc2)c1C1CC(c2ccc(Br)cc2)=NO1 (centres undefined),10%,
Cc1ccc(C2=NOC(c3c(C)nn(-c4ccccc4)c3-c3ccccc3)C2)cc1 (centres undefined),53%,
COc1ccc(OC)c(C2=NNC(c3c(C)nn(-c4ccccc4)c3-c3ccccc3)C2)c1 (centres undefined),22%,
Cc1nn(-c2ccccc2)c(-c2ccccc2)c1/C=C/C(=O)c1ccc(N)cc1,inactive,Toxic
Cc1nn(-c2ccccc2)c(-c2ccccc2)c1-c1cc(-c2ccc(Br)cc2)[nH]c(=O)c1C#N,52%,
Cc1ccc(C2=NN(c3ccccc3)C(c3c(C)nn(-c4ccccc4)c3-c3ccccc3)C2)cc1 (centres undefined),inactive,Toxic
Cc1nn(-c2ccccc2)c(-c2ccccc2)c1C1CC(c2ccc(Br)cc2)=NN1c1ccccc1 (centres undefined),inactive,Toxic
Cc1nn(-c2ccccc2)c(-c2ccccc2)c1-c1cc(-c2ccc(Br)cc2)nc(N2C(=O)c3ccccc3C2=O)c1C#N,22%,
Cc1nn(-c2ccccc2)c(-c2ccccc2)c1C1CC(c2ccc(N)cc2)=NN1 (centres undefined),10%,
Cc1ccc(C(=O)/C=C/c2c(C)nn(-c3ccccc3)c2-c2ccccc2)cc1,10%,
Cc1nn(-c2ccccc2)c(-c2ccccc2)c1C1CC(c2cccc(N)c2)=NN1 (centres undefined),15%,
Cc1nn(-c2ccccc2)c(-c2ccccc2)c1C1CC(c2cccc(N)c2)=NO1 (centres undefined),22%,
COc1ccc(O)c(C2=NOC(c3c(C)nn(-c4ccccc4)c3-c3ccccc3)C2)c1 (centres undefined),inactive,Toxic
Cc1nn(-c2ccccc2)c(-c2ccccc2)c1-c1cc(-c2ccc(Br)cc2)nc(N)c1C#N,51%,
COc1ccc(OC)c(C2=NN(c3ccccc3)C(c3c(C)nn(-c4ccccc4)c3-c3ccccc3)C2)c1 (centres undefined),inactive,Toxic
Cc1nn(-c2ccccc2)c(-c2ccccc2)c1-c1cc(-c2ccc(Br)cc2)nc2nc(/C=C/C(=O)O)[nH]c(=O)c12,10%,
CSc1cccc(Nc2nc(-c3ccc(C)cc3)cc(-c3c(C)nn(-c4ccccc4)c3-c3ccccc3)n2)c1,52%,
Cc1nn(-c2ccccc2)c(-c2ccccc2)c1/C=C/C(=O)c1cccc(N)c1,10%,
COc1ccc(C(=O)/C=C/c2c(C)nn(-c3ccccc3)c2-c2ccccc2)cc1,inactive,Toxic
COc1ccc(C2=NNC(c3c(C)nn(-c4ccccc4)c3-c3ccccc3)C2)cc1 (centres undefined),22%,
Cc1nn(-c2ccccc2)c(-c2ccccc2)c1C1CC(c2ccc(N)cc2)=NO1 (centres undefined),10%,
Cc1nn(-c2ccccc2)c(-c2ccccc2)c1C1CC(c2cccc(N)c2)=NN1c1ccccc1 (centres undefined),11%,
COc1ccc(C2=NOC(c3c(C)nn(-c4ccccc4)c3-c3ccccc3)C2)cc1 (centres undefined),inactive,Toxic
Cc1nn(-c2ccccc2)c(-c2ccccc2)c1/C=C/C(=O)c1ccc(Br)cc1,22%,
Cc1nn(-c2ccccc2)c(-c2ccccc2)c1C1CC(c2ccc(Br)cc2)=NN1 (centres undefined),18%,
COc1ccc(C2=NN(c3ccccc3)C(c3c(C)nn(-c4ccccc4)c3-c3ccccc3)C2)cc1 (centres undefined),inactive,Toxic
